Read-outs that look alike come from different tables or passages of the source.
Biological target: T1, hNav1.8 (Homo sapiens, UniProt Q9Y5Y9)
T1 construct: host or cells: HEK cells, stably transfected
Experiment: hNav1.8 whole-cell patch-clamp electrophysiology (conventional or PatchXpress 7000) in stably transfected HEK cells
Format: cell-based
Excerpt: The ability of the benzimidazole derivatives of the formula (I) to inhibit the Nav1.8 channel may be measured using the assay described below.
HEK cells stably transfected with hNav1.8, purchased from Millipore (Millipore Corp., Billerica, Mass. 01821), were maintained according to manufacturer's instructions. For electrophysiological studies, cells were removed from the culture flask by brief trypsinization and re-plated at low density onto glass cover slips. Cells were typically used for electrophysiological experiments within 24 to 72 h after plating.
Cover slips containing HEK cells expressing hNav1.8 were placed in a bath on the stage of an inverted microscope and perfused (approximately 1 ml/min) with extracellular solution of the following composition: 138 mM NaCl, 2 mM CaCl2, 5.4 mM KCl, 1 mM MgCl2, 10 mM glucose, and 10 mM HEPES, pH 7.4, with NaOH. […] The osmolarity of the extracellular and intracellular solutions was 300 mOsm/kg and 295 mOsm/kg, respectively. All recordings were made at room temperature (22-24° C.) using AXOPATCH 200B amplifiers and PCLAMP software (Axon Instruments, Burlingame, Calif.).
hNav1.8 currents in HEK cells were measured using the whole-cell configuration of the patch-clamp technique (Hamill et al., 1981). Uncompensated series resistance was typically 2 to 5 mega ohms and >85% series resistance compensation was routinely achieved. As a result, voltage errors were negligible and no correction was applied. Current records were acquired at 20 to 50 KHz and filtered at 5 to 10 KHz.
HEK cells stably transfected with hNav1.8 were viewed under Hoffman contrast optics and placed in front of an array of flow pipes emitting either control or compound-containing extracellular solutions. All compounds were dissolved in dimethyl sulfoxide to make 10 mM stock solutions, which were then diluted into extracellular solution to attain the final concentrations desired.
The voltage-dependence of inactivation was determined by applying a series of depolarizing prepulses (8 sec long in 10 mV increments) from a negative holding potential. The voltage was then immediately stepped to 0 mV to assess the magnitude of the sodium current. Currents elicited at 0 mV were plotted as a function of prepulse potential to allow estimation of the voltage at which 50% of the channels were inactivated (midpoint of inactivation or V1/2). Compounds were tested for their ability to inhibit hNav1.8 sodium channels by activating the channel with a 20 msec voltage step to 0 mV following an 8 second conditioning prepulse to the empirically determined V1/2. Compound effect (% inhibition) was determined by difference in current amplitude before and after application of test compounds. For ease of comparison, “estimated IC50” values were calculated from single point electrophysiology data by the following equation, (tested concentration, uM)×(100-% inhibition/% inhibition). Inhibition values<20% and >80% were excluded from the calculation.
In some cases electrophysiological assays were conducted with PatchXpress 7000 hardware and associated software (Molecular Devices Corp). All assay buffers and solutions were identical to those used in conventional whole-cell voltage clamp experiments described above. hNav1.8 cells were grown as above to 50%-80% confluency and harvested by trypsinization. Trypsinized cells were washed and resuspended in extracellular buffer at a concentration of 1×10^6 cells/ml. The onboard liquid handling facility of the PatchXpress was used for dispensing cells and application of test compounds. Determination of the voltage midpoint of inactivation was as described for conventional whole-cell recordings. Cells were then voltage-clamped to the empirically determined V1/2 and current was activated by a 20 msec voltage step to 0 mV.
Estimated IC50 values for the compounds of formula (I) exemplified above are as follows. […]

[1] = estimated IC50 calculated from single point % inhibition, HEK cells expressing hNav1.8, 8 sec prepulse to V1/2, 20 msec step to 0 mV, average of replicates, read-out: Nav1.8 EIC50

T1 sequence (Q9Y5Y9 whole entry): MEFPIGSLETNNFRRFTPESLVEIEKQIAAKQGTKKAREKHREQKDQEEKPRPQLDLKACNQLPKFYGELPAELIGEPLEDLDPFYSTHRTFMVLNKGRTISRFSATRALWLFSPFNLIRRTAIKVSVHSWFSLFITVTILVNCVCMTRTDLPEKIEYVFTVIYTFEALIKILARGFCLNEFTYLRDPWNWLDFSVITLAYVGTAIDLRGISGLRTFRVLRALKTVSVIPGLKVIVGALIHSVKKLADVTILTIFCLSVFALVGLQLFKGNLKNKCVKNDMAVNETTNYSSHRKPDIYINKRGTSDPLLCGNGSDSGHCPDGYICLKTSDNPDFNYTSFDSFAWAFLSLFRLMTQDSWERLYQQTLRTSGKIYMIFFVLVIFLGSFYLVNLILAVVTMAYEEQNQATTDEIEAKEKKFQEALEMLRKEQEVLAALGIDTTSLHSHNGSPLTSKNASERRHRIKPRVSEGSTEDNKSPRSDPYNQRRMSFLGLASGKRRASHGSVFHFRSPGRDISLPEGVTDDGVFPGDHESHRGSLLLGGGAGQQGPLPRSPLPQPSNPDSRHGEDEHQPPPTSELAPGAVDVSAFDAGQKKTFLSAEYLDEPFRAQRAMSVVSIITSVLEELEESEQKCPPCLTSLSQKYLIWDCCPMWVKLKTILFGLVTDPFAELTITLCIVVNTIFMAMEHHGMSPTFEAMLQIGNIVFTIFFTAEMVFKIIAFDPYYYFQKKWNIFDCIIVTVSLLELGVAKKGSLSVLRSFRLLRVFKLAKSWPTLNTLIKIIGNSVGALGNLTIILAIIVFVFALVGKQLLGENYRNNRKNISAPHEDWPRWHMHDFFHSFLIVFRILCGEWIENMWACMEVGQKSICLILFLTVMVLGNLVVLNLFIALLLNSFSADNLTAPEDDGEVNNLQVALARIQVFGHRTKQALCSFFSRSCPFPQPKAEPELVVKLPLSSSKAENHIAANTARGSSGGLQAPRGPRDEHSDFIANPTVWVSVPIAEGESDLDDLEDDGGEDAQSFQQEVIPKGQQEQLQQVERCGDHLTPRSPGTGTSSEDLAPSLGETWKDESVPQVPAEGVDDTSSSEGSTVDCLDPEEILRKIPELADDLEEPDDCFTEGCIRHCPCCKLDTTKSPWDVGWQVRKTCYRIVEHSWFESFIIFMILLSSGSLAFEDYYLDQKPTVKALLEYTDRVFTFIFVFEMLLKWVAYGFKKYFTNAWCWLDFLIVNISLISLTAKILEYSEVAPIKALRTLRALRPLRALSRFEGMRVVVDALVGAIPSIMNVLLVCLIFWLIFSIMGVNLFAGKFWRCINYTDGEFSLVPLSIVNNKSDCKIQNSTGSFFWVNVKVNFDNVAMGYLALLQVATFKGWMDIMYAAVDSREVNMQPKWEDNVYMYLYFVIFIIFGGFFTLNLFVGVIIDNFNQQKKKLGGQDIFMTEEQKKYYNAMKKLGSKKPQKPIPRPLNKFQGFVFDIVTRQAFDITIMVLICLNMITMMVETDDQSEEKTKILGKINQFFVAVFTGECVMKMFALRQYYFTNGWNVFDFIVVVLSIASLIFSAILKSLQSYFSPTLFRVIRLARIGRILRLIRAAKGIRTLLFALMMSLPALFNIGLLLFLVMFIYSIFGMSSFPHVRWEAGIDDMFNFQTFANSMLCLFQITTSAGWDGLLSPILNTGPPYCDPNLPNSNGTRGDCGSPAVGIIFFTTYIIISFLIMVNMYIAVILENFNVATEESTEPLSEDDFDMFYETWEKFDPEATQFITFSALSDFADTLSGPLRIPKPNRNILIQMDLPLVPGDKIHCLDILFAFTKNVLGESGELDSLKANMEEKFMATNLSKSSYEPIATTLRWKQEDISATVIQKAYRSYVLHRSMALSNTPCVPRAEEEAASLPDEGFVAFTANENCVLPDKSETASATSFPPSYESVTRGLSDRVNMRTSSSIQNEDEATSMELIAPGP

| Compound | IC50 [1] | IC50 |
| --- | --- | --- |
| C[C@H](C(N)=O)[C@H](N)c1nc2cc(C(C)(C)C)ccc2[nH]1 (single isomer, unassigned) [Example 104] | 1580 nM |  |
| CC(C)CC[C@H](N)c1nc2cc(C(C)(C)C)ccc2[nH]1 [Example 1, (1S)-1-(5-tert-Butyl-1H-benzimidazol-2-yl)-4-methylpentan-1-amine] | 127 nM |  |
| CC(C)(C)c1ccc2[nH]c([C@@H](N)C3CCCC3)nc2c1 [Example 3, (S)-1-(5-tert-Butyl-1H-benzimidazol-2-yl)-1-cyclopentylmethanamine] | 12.5 nM |  |
| CC(C)(C)c1ccc2[nH]c(C3(N)CCC3)nc2c1 [Example 4, 1-(5-tert-Butyl-1H-benzimidazol-2-yl)cyclobutanamine] | 447 nM |  |
| CC(C)(C)c1ccc2[nH]c([C@@H](N)C(C)(C)C)nc2c1 [Example 6, (1S)-1-(5-tert-Butyl-1H-benzimidazol-2-yl)-2,2-dimethylpropan-1-amine] | 433 nM |  |
| CC(C)C[C@@H](N)c1nc2cc(C(C)(C)C)ccc2[nH]1 [Example 8, (1R)-1-(5-tert-Butyl-1H-benzimidazol-2-yl)-3-methylbutan-1-amine] | 108 nM |  |
| COC[C@H](N)c1nc2cc(C(C)(C)C)ccc2[nH]1 [Example 12, (1R)-1-(5-tert-Butyl-1H-benzimidazol-2-yl)-2-methoxyethanamine] | 243 nM |  |
| CC(C)(C)c1ccc2[nH]c(C3(N)CCCC3)nc2c1 [Example 13, 1-(5-tert-Butyl-1H-benzimidazol-2-yl)cyclopentanamine] | 496 nM |  |
| CC(C)C[C@H](N)c1nc2cc(C(C)(C)C)ccc2[nH]1 [Example 14, (1S)-1-(5-tert-Butyl-1H-benzimidazol-2-yl)-3-methylbutan-1-amine] | 476 nM |  |
| CC(C)(C)c1ccc2[nH]c([C@H](N)C(C)(C)C)nc2c1 [Example 15, (1R)-1-(5-tert-Butyl-1H-benzimidazol-2-yl)-2,2-dimethylpropan-1-amine] | 123 nM |  |
| C[C@H](O)[C@@H](N)c1nc2cc(C(C)(C)C)ccc2[nH]1 [Example 16, (1S,2S)-1-Amino-1-(5-tert-butyl-1H-benzimidazol-2-yl)propan-2-ol] | 2510 nM |  |
| CC(C)(C)c1ccc2[nH]c(C3(N)CCCCC3)nc2c1 [Example 17, 1-(5-tert-Butyl-1H-benzimidazol-2-yl)cyclohexanamine] |  | 468 nM |
| C[C@@H](O)[C@@H](N)c1nc2cc(C(C)(C)C)ccc2[nH]1 [Example 18, (1S,2R)-1-Amino-1-(5-tert-butyl-1H-benzimidazol-2-yl)propan-2-ol] | 487 nM |  |
| CC(C)(C)c1ccc2[nH]c([C@@H](N)CO)nc2c1 [Example 20, (2R)-2-Amino-2-(5-tert-butyl-1H-benzimidazol-2-yl)ethanol] | 106 nM |  |
| CO[C@H](C)[C@H](N)c1nc2cc(C(C)(C)C)ccc2[nH]1 [Example 21, (1R,2R)-1-(5-tert-Butyl-1H-benzimidazol-2-yl)-2-methoxypropan-1-amine] | 32.6 nM |  |
| CC[C@@H](C)[C@@H](N)c1nc2cc(C(C)(C)C)ccc2[nH]1 [Example 23, (1R,2R)-1-(5-tert-Butyl-1H-benzimidazol-2-yl)-2-methylbutan-1-amine] | 44.6 nM |  |
| CC(C)(C)c1ccc2[nH]c([C@@H]3C[C@@H](O)CN3)nc2c1 [Example 26, (3R,5S)-5-(5-tert-Butyl-1H-benzimidazol-2-yl)pyrrolidin-3-ol] | 31.5 nM |  |
| CCC(C)(C)c1ccc2[nH]c([C@@H](N)CC(N)=O)nc2c1 [Example 30, (3S)-3-Amino-3-[5-(2-methylbutan-2-yl)-1H-benzimidazol-2-yl]propanamide] | 148 nM |  |
| CCC(C)(C)c1ccc2[nH]c([C@@H](N)COC)nc2c1 [Example 31, (1R)-2-Methoxy-1-[5-(2-methylbutan-2-yl)-1H-benzimidazol-2-yl]ethanamine] | 125 nM |  |
| CCC(C)(C)c1ccc2[nH]c(C3(N)Cc4ccccc4C3)nc2c1 [Example 33, 2-[5-(2-Methylbutan-2-yl)-1H-benzimidazol-2-yl]-2,3-dihydro-1H-inden-2-amine] | 266 nM |  |

The next lines start with results.

| IC50 [1] | Compound | IC50 |
| --- | --- | --- |
| 15.4 nM | C[C@@H](C(N)=O)[C@H](N)c1nc2cc(C(C)(C)C)ccc2[nH]1 (single isomer, unassigned) [Example 103] |  |
| 713 nM | N#Cc1ccc(-c2ccc3[nH]c([C@@H]4C[C@@H](O)CN4)nc3c2)cc1 (stereo in doubt) [Example 46, 4-{2-[(2S,4R)-4-Hydroxypyrrolidin-2-yl]-1H-benzimidazol-5-yl}benzonitrile] |  |
| 76 nM | CC(C)(C)c1ccc2[nH]c(C3(N)Cc4ccccc4C3)nc2c1 [Example 2, 2-(5-tert-Butyl-1H-benzimidazol-2-yl)-2,3-dihydro-1H-inden-2-amine] |  |
| 364 nM | CC(C)[C@H](N)c1nc2cc(C(C)(C)C)ccc2[nH]1 [Example 5, (1S)-1-(5-tert-Butyl-1H-benzimidazol-2-yl)-2-methylpropan-1-amine] |  |
| 439 nM | C[C@H](N)c1nc2cc(C(C)(C)C)ccc2[nH]1 [Example 7, (1S)-1-(5-tert-Butyl-1H-benzimidazol-2-yl)ethanamine] |  |
| 347 nM | CC(C)[C@@H](N)c1nc2cc(C(C)(C)C)ccc2[nH]1 [Example 9, (1R)-1-(5-tert-Butyl-1H-benzimidazol-2-yl)-2-methylpropan-1-amine] |  |
| 607 nM | C[C@@H](N)c1nc2cc(C(C)(C)C)ccc2[nH]1 [Example 10, (1R)-1-(5-tert-Butyl-1H-benzimidazol-2-yl)ethanamine] |  |
| 29.7 nM | CCCC[C@H](N)c1nc2cc(C(C)(C)C)ccc2[nH]1 [Example 11, (1S)-1-(5-tert-Butyl-1H-benzimidazol-2-yl)pentan-1-amine] |  |
| 176 nM | C[C@H](O)[C@H](N)c1nc2cc(C(C)(C)C)ccc2[nH]1 [Example 19, (1R,2S)-1-Amino-1-(5-tert-butyl-1H-benzimidazol-2-yl)propan-2-ol] |  |
| 108 nM | CC(C)(C)c1ccc2[nH]c([C@@H]3C[C@H](O)CN3)nc2c1 [Example 22, (3S,5S)-5-(5-tert-Butyl-1H-benzimidazol-2-yl)pyrrolidin-3-ol] |  |
| 58 nM | CC(C)(C)c1ccc2[nH]c([C@H]3C[C@@H](O)CN3)nc2c1 [Example 24, (3R,5R)-5-(5-tert-Butyl-1H-benzimidazol-2-yl)pyrrolidin-3-ol] |  |
| 74.2 nM | CC(C)(C)c1ccc2[nH]c([C@H]3CCCN3)nc2c1 [Example 25, 5-tert-Butyl-2-[(2R)-pyrrolidin-2-yl]-1H-benzimidazole] |  |
| 153 nM | COC(C)(C)C(N)c1nc2cc(C(C)(C)C)ccc2[nH]1 (centres unmarked) [Example 27, 1-(5-tert-Butyl-1H-benzimidazol-2-yl)-2-methoxy-2-methylpropan-1-amine] |  |
| 130 nM | CC(C)(C)c1ccc2[nH]c([C@H](N)CC(N)=O)nc2c1 [Example 28, (3R)-3-Amino-3-(5-tert-butyl-1H-benzimidazol-2-yl)propanamide] |  |
| 390 nM | CCC(C)(C)c1ccc2[nH]c([C@@H]3C[C@H](O)CN3)nc2c1 [Example 29, (3S,5S)-5-[5-(2-Methylbutan-2-yl)-1H-benzimidazol-2-yl]pyrrolidin-3-ol] |  |
| 163 nM | N#Cc1ccc(-c2ccc3[nH]c([C@@H](N)C4CCCC4)nc3c2)cc1 [Example 32, 4-{2-[(S)-Amino(cyclopentyl)methyl]-1H-benzimidazol-5-yl}benzonitrile] |  |
| 30.6 nM | N#Cc1ccc(-c2ccc3[nH]c(C4(N)Cc5ccccc5C4)nc3c2)cc1 [Example 34, 4-[2-(2-Amino-2,3-dihydro-1H-inden-2-yl)-1H-benzimidazol-5-yl]benzonitrile] |  |
| 171 nM | CCC(C)(C)c1ccc2[nH]c([C@H](C)N)nc2c1 [Example 35, (1S)-1-[5-(2-Methylbutan-2-yl)-1H-benzimidazol-2-yl]ethanamine] |  |

Source: patent US8927587B2, “Chemical compounds” (Pfizer Limited, priority 2012, dated 2015)
